Data from the PolyMetriX glass transition set.
± gives the standard deviation of the reports.

Question: For `*C(=O)N1C(=S)N(C(=O)c2ccc3c(c2)C(=O)N(c2ccc(Oc4ccc(N5C(=O)c6ccc(*)cc6C5=O)cc4)cc2)C3=O)C(C)=C(C(=O)OCC)C1c1ccccc1` (repeat unit), which glass transition temperature is on record?
Answer: 155.00 °C

Question: For `*Oc1ccc(CC(NC(=O)CCc2ccc(OC(=O)CCC(*)=O)cc2)C(=O)OCCOCCOCC)cc1` (repeat unit), which glass transition temperature is on record?
Answer: 34.00 °C

Question: Which glass transition temperature does the source give for `*CC(*)OCCCCCC` (repeat unit) [Poly(hexyl vinyl ether)] here?
Answer: -69.58 ± 5.8 °C

Question: For `*Oc1c(Br)cc(C(C)(C)c2cc(Br)c(OC(=O)c3ccc(OCCCCCCCCCCOc4ccc(C(*)=O)cc4)cc3)c(Br)c2)cc1Br` (repeat unit), which glass transition temperature is on record?
Answer: 128.00 °C

Question: Which glass transition temperature does the source give for `*C(=O)Nc1ccc(C2(c3ccc(N4C(=O)c5ccc(*)cc5C4=O)cc3)CCC(C(C)(C)C)CC2)cc1` (repeat unit) here?
Answer: 331.00 °C

Question: For `*/C=C(/*)c1ccc(-n2c(=O)c3cc4c(=O)n(-c5ccc(C#C)cc5)c(=O)c4cc3c2=O)cc1` (repeat unit), which glass transition temperature is on record?
Answer: 420.00 °C

Question: With `*C(=O)c1ccc2c(c1)C(=O)N(c1cccc(C(O[Si](C)(C)O[Si](C)(C)O[Si](C)(C)C)c3cccc(N4C(=O)c5ccc(*)cc5C4=O)c3)c1)C2=O` (repeat unit) as the compound, how does the glass transition temperature read?
Answer: 235.00 °C

Question: Which glass transition temperature does the source give for `*c1ccc(Oc2ccc(-c3ccc(Oc4ccc(N5C(=O)c6ccc(Oc7ccc(C(c8ccc(Oc9ccc%10c(c9)C(=O)N(*)C%10=O)cc8)(C(F)(F)F)C(F)(F)F)cc7)cc6C5=O)cc4)cc3)cc2)cc1` (repeat unit) here?
Answer: 217.00 °C

Question: With `*Oc1ccc(Oc2ccc(OC(=O)c3cccc(Oc4ccc(Oc5cccc(C(*)=O)c5)cc4)c3)cc2)cc1` (repeat unit) as the compound, how does the glass transition temperature read?
Answer: 104.00 °C

Question: With `*C[Si](*)(C)CCCCCC` (repeat unit) as the compound, how does the glass transition temperature read?
Answer: -77.60 °C

Question: With `*CC(*)C(=O)Oc1ccc(/N=N/c2ccc(OC)cc2)cc1` (repeat unit) as the compound, how does the glass transition temperature read?
Answer: 140.00 °C

Question: Which glass transition temperature does the source give for `*CCCCCCCCCNC(=S)N*` (repeat unit) here?
Answer: 48.00 °C

Question: Which glass transition temperature does the source give for `*C(=O)c1ccc2c(c1)C(=O)N(c1cccc(Cc3ccc(C(=O)c4ccc(N5C(=O)c6ccc(*)cc6C5=O)cc4)cc3)c1)C2=O` (repeat unit) here?
Answer: 254.00 °C

Question: For `*CCN(CCOC(=O)Nc1ccc(Cc2ccc(NC(=O)O*)cc2)cc1)c1ccc(/N=N/c2ccc([N+](=O)[O-])cc2)cc1` (repeat unit), which glass transition temperature is on record?
Answer: 136.40 °C

Question: Which glass transition temperature does the source give for `*Oc1c(C)cc(C(C)(C)c2cc(C)c(OC(=O)c3cccc(C(*)=O)c3)c(C)c2)cc1C` (repeat unit) here?
Answer: 187.00 °C

Question: Which glass transition temperature does the source give for `*/C=C/C(C)C(*)C(=O)OC` (repeat unit) here?
Answer: 53.00 °C

Question: Which glass transition temperature does the source give for `*SSc1ccc(/N=C/Nc2ccc(*)cc2)cc1` (repeat unit) here?
Answer: 98.00 °C

Question: For `*c1ccc(Cc2ccc(N3C(=O)c4ccc(-c5ccc6c(c5)C(=O)N(*)C6=O)cc4C3=O)c(C(C)(C)C)c2)cc1C(C)(C)C` (repeat unit), which glass transition temperature is on record?
Answer: 324.00 °C

Question: Which glass transition temperature does the source give for `*c1ccc(C#Cc2cc(OCCCCCCCC)c(C#Cc3ccc(-c4nnc(*)o4)cc3)cc2OCCCCCCCC)cc1` (repeat unit) here?
Answer: 130.00 °C

Question: For `*Oc1ccc(Oc2cccc(*)n2)cc1` (repeat unit), which glass transition temperature is on record?
Answer: 100.00 °C

Question: With `*c1cc(CCCCCCCC)c(*)s1` (repeat unit) as the compound, how does the glass transition temperature read?
Answer: -13.10 ± 5.5 °C

Question: For `*CC1CCCC(CN2C(=O)c3ccc(Oc4ccc5c(c4)C(=O)N(*)C5=O)cc3C2=O)C1` (repeat unit), which glass transition temperature is on record?
Answer: 199.00 °C

Question: For `*c1ccc(Oc2ccc(C(c3ccc(Oc4ccc(-n5c(=O)c6cc7c(=O)n(*)c(=O)c7cc6c5=O)cc4)cc3)(C(F)(F)F)C(F)(F)F)cc2)cc1` (repeat unit), which glass transition temperature is on record?
Answer: 302.50 ± 11 °C

Question: Which glass transition temperature does the source give for `*Oc1cccc2c(OC(=O)c3ccc(Oc4ccc(C(*)=O)cc4)cc3)cccc12` (repeat unit) here?
Answer: 171.00 °C

Question: For `*CCCCCCN(CC(F)(F)C(F)(F)F)C(=O)C(F)(F)C(F)(F)C(F)(F)C(=O)N(*)CC(F)(F)C(F)(F)F` (repeat unit), which glass transition temperature is on record?
Answer: 174.00 °C

Question: With `*CCC1CC(*)C2C3CC(C12)C(C)(C(=O)OC)C3` (repeat unit) as the compound, how does the glass transition temperature read?
Answer: 146.00 °C

Question: For `*Oc1cc(OC(=O)c2ccc(OCC)cc2)c(OC(=O)CCCCCCCCCCCCCCC(*)=O)cc1OC(=O)c1ccc(OCC)cc1` (repeat unit), which glass transition temperature is on record?
Answer: 31.00 °C

Question: Which glass transition temperature does the source give for `*CCCCCCCCCCCC(=O)Oc1ccc2cc(OC(=O)CCCCCCCCCCCn3c(=O)c4cc5c(=O)n(*)c(=O)c5cc4c3=O)ccc2c1` (repeat unit) here?
Answer: 62.00 °C

Question: For `*C(=O)c1ccc2c(c1)C(=O)N(c1cccc(Nc3nc(Nc4cccc(N5C(=O)c6ccc(*)cc6C5=O)c4)nc(-c4ccccc4)n3)c1)C2=O` (repeat unit), which glass transition temperature is on record?
Answer: 292.00 °C

Question: Which glass transition temperature does the source give for `*CCN(CCOC(=O)c1cc(OCCC2CCN(c3ccc(S(=O)(=O)C(F)(F)C(F)(F)C(F)(F)C(F)(F)C(F)(F)C(F)(F)C(F)(F)C(F)(F)F)cc3)CC2)cc(C(=O)O*)c1)c1ccc(S(=O)(=O)C(F)(F)C(F)(F)C(F)(F)C(F)(F)C(F)(F)C(F)(F)C(F)(F)C(F)(F)F)cc1` (repeat unit) here?
Answer: 86.00 °C

Question: With `*CCCCCCOC(=O)O*` (repeat unit) as the compound, how does the glass transition temperature read?
Answer: -42.00 °C

Question: With `*c1ccc(-c2sc(-c3ccc(-c4cc(CCCCCCCCCCCC)c(*)s4)cc3)cc2CCCCCCCCCCCC)cc1` (repeat unit) as the compound, how does the glass transition temperature read?
Answer: -19.20 °C

Question: For `*Oc1cccc2ccc(Oc3ccc(NC(=O)c4ccc(Oc5ccc(S(=O)(=O)c6ccc(Oc7ccc(C(=O)Nc8ccc(*)cc8)cc7)cc6)cc5)cc4)cc3)cc12` (repeat unit), which glass transition temperature is on record?
Answer: 218.00 °C

Question: With `*Oc1ccc2cc(Oc3ccc(S(=O)(=O)c4ccc(Oc5ccc(C(=O)c6ccc(*)cc6)cc5)cc4)cc3)ccc2c1` (repeat unit) as the compound, how does the glass transition temperature read?
Answer: 199.00 °C

Question: For `*CNC(=O)OCC(OC(=O)NCc1ccc(C(C)(C)c2ccc(*)o2)o1)c1ccco1` (repeat unit), which glass transition temperature is on record?
Answer: 20.00 °C

Question: With `*CC(*)(C)C(=O)OCC1CC(NC(=O)OC(C)(C)C)CN1C(=O)OC(C)(C)C` (repeat unit) as the compound, how does the glass transition temperature read?
Answer: 127.00 °C

Question: For `*c1ccc(/C=C(\c2ccc(OC)cc2)c2ccc(/C(=C/c3ccc(N(*)c4ccccc4)cc3)c3ccc(OC)cc3)cc2)cc1` (repeat unit), which glass transition temperature is on record?
Answer: 197.00 °C

Question: For `*Oc1ccc(S(=O)(=O)c2ccc(Oc3ccc(/C=N/c4ccc(Oc5ccc(/N=C/c6ccc(*)cc6)cc5)cc4)cc3)cc2)cc1` (repeat unit), which glass transition temperature is on record?
Answer: 162.00 °C

Question: With `*Oc1ccc(C(c2ccc(Oc3ccc(C(=O)c4ccc(C(C)(C)c5ccc(C(=O)c6ccc(*)cc6)cc5)cc4)cc3)cc2)(C(F)(F)F)C(F)(F)F)cc1` (repeat unit) as the compound, how does the glass transition temperature read?
Answer: 179.00 °C

Question: For `*Cc1cc(C)c(CNC(=O)CCCCC(=O)N*)cc1C` (repeat unit), which glass transition temperature is on record?
Answer: 70.00 °C

Question: For `*CCOCCOCCOC(=O)c1ccc(-c2ccc(-c3ccc(C(=O)O*)cc3)cc2)cc1` (repeat unit), which glass transition temperature is on record?
Answer: 50.00 °C

Question: Which glass transition temperature does the source give for `*CC(CC(*)(C#N)C#N)c1ccc(F)cc1` (repeat unit) here?
Answer: 180.00 °C

Question: Which glass transition temperature does the source give for `*Oc1c(C)c(C)c(NC(=O)c2ccc(C(=O)Nc3ccc(*)cc3)cc2)c(C)c1C` (repeat unit) here?
Answer: 333.00 °C

Question: Which glass transition temperature does the source give for `*O[Si](C)(C)O[Si](C)(C)O[SiH](*)O[Si](C)(C)C=C` (repeat unit) here?
Answer: -68.00 °C

Question: For `*Nc1cc(NC(=O)c2ccc(C(*)=O)cc2)cc(C(=O)OCCOc2ccc(/C=C/C(=O)c3ccccc3)cc2)c1` (repeat unit), which glass transition temperature is on record?
Answer: 233.00 °C

Question: For `*Oc1ccc(/C=N/N=C/c2ccc(Oc3ccc(C(=O)c4ccc(*)cc4)cc3)cc2)cc1` (repeat unit), which glass transition temperature is on record?
Answer: 179.00 °C

Question: Which glass transition temperature does the source give for `*c1ccc(Oc2c(C)cc(C(C)(C)c3cc(C)c(Oc4ccc(N5C(=O)c6ccc(Oc7ccc(C8(c9ccc(Oc%10ccc%11c(c%10)C(=O)N(*)C%11=O)cc9)CCC(c9ccccc9)CC8)cc7)cc6C5=O)cc4)c(C)c3)cc2C)cc1` (repeat unit) here?
Answer: 232.00 °C

Question: With `*Oc1ccc(C(C)(C)c2ccc(OC(=O)c3ccc(C(*)=O)cc3)c(CCCC)c2)cc1CCCC` (repeat unit) as the compound, how does the glass transition temperature read?
Answer: 160.00 °C

Question: With `*C(=O)Nc1ccc(NC(=O)c2ccc3c(c2)C(=O)N(c2ccc(Oc4ccc(N5C(=O)c6ccc(*)cc6C5=O)cc4)cc2)C3=O)c(OCCCCCCS(=O)(=O)c2ccc(/C=C/c3ccc(N(C)C)cc3)cc2)c1` (repeat unit) as the compound, how does the glass transition temperature read?
Answer: 192.00 °C

Question: For `*c1ccc2c(c1)C(=O)N(c1ccc(Oc3c(C(C)(C)C)cc(-c4ccc(N5C(=O)c6ccc(C(*)(C(F)(F)F)C(F)(F)F)cc6C5=O)cc4)cc3C(C)(C)C)c(C(F)(F)F)c1)C2=O` (repeat unit), which glass transition temperature is on record?
Answer: 362.50 °C

Question: Which glass transition temperature does the source give for `*Nc1cccc(NC(=O)c2cc(NC(=O)C(CCSC)N3C(=O)c4ccccc4C3=O)cc(C(*)=O)c2)c1` (repeat unit) here?
Answer: 196.00 °C

Question: With `*c1ccc(-c2sc(-c3cc(SCCCCCCCCCCCC)c(*)s3)cc2SCCCCCCCCCCCC)cc1` (repeat unit) as the compound, how does the glass transition temperature read?
Answer: 65.40 °C

Question: For `*Oc1ccc(OC(=O)c2ccc(C(*)=O)cc2Oc2ccc(-c3ccccc3)cc2)cc1` (repeat unit), which glass transition temperature is on record?
Answer: 117.00 °C

Question: For `*C1C=C(CCCCCC)C(*)S1` (repeat unit), which glass transition temperature is on record?
Answer: 58.1 °C

Question: With `*c1ccc2c(c1)C(=O)N(c1ccc3c(c1)-c1cc(N4C(=O)c5ccc(C(*)(C(F)(F)F)C(F)(F)F)cc5C4=O)ccc1C3)C2=O` (repeat unit) as the compound, how does the glass transition temperature read?
Answer: 394.00 °C

Question: With `*C1C(=O)N(CCCCCCCCOc2ccc(-c3ccc(C#N)cc3)cc2)C(=O)C1*` (repeat unit) as the compound, how does the glass transition temperature read?
Answer: 43.00 °C

Question: For `*Nc1ccc(C(c2ccc(NC(=O)c3ccc(-c4ccc(C(*)=O)c(C)c4)cc3C)cc2)(C(F)(F)F)C(F)(F)F)cc1` (repeat unit), which glass transition temperature is on record?
Answer: 289.00 °C

Question: Which glass transition temperature does the source give for `*c1ccc(OC(=O)CCCCCCCCCCCCCCCCCCCCC(=O)Oc2ccc(N3C(=O)c4ccc(-c5ccc6c(c5)C(=O)N(*)C6=O)cc4C3=O)cc2)cc1` (repeat unit) here?
Answer: 140.00 °C

Question: For `*CCCc1nc2cc(-c3ccc4[nH]c(*)nc4c3)ccc2[nH]1` (repeat unit), which glass transition temperature is on record?
Answer: 275.00 °C

Question: With `*C(=O)c1ccc2c(c1)C(=O)N(c1cccc(S(=O)(=O)c3cccc(N4C(=O)c5ccc(*)cc5C4=O)c3)c1)C2=O` (repeat unit) as the compound, how does the glass transition temperature read?
Answer: 275.50 ± 3.5 °C

Question: With `*c1ccc(C(c2ccccc2)c2ccc(N3C(=O)c4ccc(Oc5ccc6c(c5)C(=O)N(*)C6=O)cc4C3=O)cc2)cc1` (repeat unit) as the compound, how does the glass transition temperature read?
Answer: 269.00 °C
